Experimental data as given in patent publication US8921362B2, “6,7-dialkoxy quinazoline derivatives and methods of treating drug resistant and other tumors” (Natco Pharma Limited, priority 2008, dated 2014).

Legend:
Assay in all cases: KinomeScan
Type in all cases: binding
Conditions in all cases: read-out: % Ctrl @ 10000 nM
[1] = target: T1, RET(V804L) (Homo sapiens, UniProt P07949, V804L)
T1 construct: host or cells: E. coli host derived from BL21, T7 phage display
Experimental: (§1) Kinase assays: Assays were performed as described in Fabian et al. (2005) Nature Biotechnology, vol. 23, p. 329. Kinase-tagged T7 phage strains were grown in parallel in 24 or 96-well blocks in an E. coli host derived from the BL21 strain. E. coli were grown to log-phase and infected with T7 phage from a frozen stock (multiplicity of infection ˜0.1) and incubated with shaking at 32° C. until lysis (−90 minutes). The lysates were centrifuged and filtered to remove cell debris. […] The liganded beads were blocked with excess biotin and washed with blocking buffer (SeaBlock (Pierce), 1% BSA, 0.05% Tween 20, 1 mM DTT) to remove unbound ligand and to reduce non-specific phage binding.
(§2) Test compounds were prepared as 40× stocks in DMSO and diluted into the aqueous environment. 2.5% DMSO was added to control assays lacking a test compound. All reactions were performed in polystyrene 96-well plates that had been pretreated with blocking buffer in a final volume of 0.04 ml. […] The phage titer in the eluates was measured by quantitative PCR.

[2] = target: T2, PIK3CA(E545K) (Homo sapiens, UniProt P42336, E545K)
T2 construct: host or cells: E. coli host derived from BL21, infected with T7 phage
Experimental: as §1, §2

[3] = target: T3, TESK1 (Homo sapiens, UniProt Q15569)
T3 construct: host or cells: T7 phage grown in E. coli (BL21-derived)
Experimental: as §1, §2

[4] = target: T4, PRKX (Homo sapiens, UniProt P51817)
T4 construct: host or cells: E. coli host derived from BL21, T7 phage display
Experimental: as §1, §2

[5] = target: T5, ERK5 (Homo sapiens, UniProt Q13164)
T5 construct: purchased Ambit Biosciences Corp; host or cells: T7 phage in E. coli host derived from BL21
T5 sequence (Q13164 whole entry): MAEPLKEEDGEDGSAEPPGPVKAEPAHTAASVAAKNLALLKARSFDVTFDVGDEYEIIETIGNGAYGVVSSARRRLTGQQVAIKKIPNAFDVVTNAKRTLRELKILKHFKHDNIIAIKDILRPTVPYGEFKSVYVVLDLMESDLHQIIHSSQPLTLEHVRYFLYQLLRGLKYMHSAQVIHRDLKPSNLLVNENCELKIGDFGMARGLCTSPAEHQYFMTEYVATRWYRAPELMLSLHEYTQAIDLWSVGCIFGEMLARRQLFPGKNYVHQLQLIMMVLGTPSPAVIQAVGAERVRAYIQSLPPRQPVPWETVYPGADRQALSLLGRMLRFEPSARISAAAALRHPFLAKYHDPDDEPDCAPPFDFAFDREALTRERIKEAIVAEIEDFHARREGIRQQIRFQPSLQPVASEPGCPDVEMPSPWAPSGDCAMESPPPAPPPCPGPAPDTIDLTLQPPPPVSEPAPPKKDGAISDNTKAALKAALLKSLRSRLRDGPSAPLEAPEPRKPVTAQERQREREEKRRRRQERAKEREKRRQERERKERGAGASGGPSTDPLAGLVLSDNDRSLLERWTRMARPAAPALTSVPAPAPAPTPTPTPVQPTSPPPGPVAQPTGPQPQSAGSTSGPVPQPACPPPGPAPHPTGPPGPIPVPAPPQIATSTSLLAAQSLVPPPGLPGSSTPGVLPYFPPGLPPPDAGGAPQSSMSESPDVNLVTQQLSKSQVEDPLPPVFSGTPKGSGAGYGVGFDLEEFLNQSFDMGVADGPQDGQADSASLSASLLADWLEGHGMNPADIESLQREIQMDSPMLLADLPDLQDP
Experimental: as §1, §2

[6] = target: T6, EGFR(L747-T751del, Sins) (Homo sapiens, UniProt P00533, DEL747-750/T751S)
T6 construct: purchased Ambit Biosciences Corp; host or cells: T7 phage in E. coli host derived from BL21
Experimental: as §1, §2

[7] = target: T7, EPHB4 (Homo sapiens, UniProt P54760)
T7 construct: purchased Ambit Biosciences Corp; host or cells: T7 phage in E. coli host derived from BL21
Experimental: as §1, §2

[8] = target: T8, HIPK1 (Homo sapiens, UniProt Q86Z02)
T8 construct: host or cells: T7 phage in E. coli host derived from BL21
Experimental: as §1, §2

[9] = target: T9, RPS6KA1(Kin.Dom.-1-N-terminal) (Homo sapiens, UniProt Q15418)
T9 construct: RPS6KA1(Kin.Dom.-1-N-terminal); host or cells: E. coli host derived from BL21, T7 phage display
Experimental: as §1, §2

[10] = target: T10, MEK4 (Homo sapiens, UniProt P45985)
T10 construct: host or cells: E. coli host derived from the BL21 strain, infected with T7 phage
Experimental: as §1, §2

[11] = target: T11, FLT3(K663Q) (Homo sapiens, UniProt P36888, K663Q)
T11 construct: host or cells: T7 phage in E. coli host derived from BL21
Experimental: as §1, §2

[12] = target: T12, CAMK1 (Homo sapiens, UniProt Q14012)
T12 construct: host or cells: E. coli host derived from BL21
Experimental: as §1, §2

[13] = target: T13, ABL1(F317L) (Homo sapiens, UniProt P00519, F317L)
T13 construct: host or cells: E. coli (BL21-derived), T7 phage lysate
Experimental: as §1, §2

[14] = target: T14, AMPK-alpha2 (Homo sapiens, UniProt P54646)
T14 construct: host or cells: E. coli (BL21-derived), T7 phage lysate
Experimental: as §1, §2

[15] = target: T15, TNK2 (Homo sapiens, UniProt Q07912)
T15 construct: host or cells: E. coli host derived from BL21, T7 phage
Experimental: as §1, §2

[16] = target: T16, TTK (Homo sapiens, UniProt P33981)
T16 construct: host or cells: E. coli host derived from BL21, T7 phage
Experimental: as §1, §2

[17] = target: T17, ABL1(Q252H) (Homo sapiens, UniProt P00519, Q252H)
T17 construct: host or cells: E. coli (BL21-derived), T7 phage lysate
Experimental: as §1, §2

[18] = target: T18, BTK (Homo sapiens, UniProt Q06187)
T18 construct: host or cells: E. coli host derived from BL21
Experimental: as §1, §2

[19] = target: T19, MERTK (Homo sapiens, UniProt Q12866)
T19 construct: host or cells: E. coli host derived from the BL21 strain, infected with T7 phage
T19 sequence (Q12866 21-999): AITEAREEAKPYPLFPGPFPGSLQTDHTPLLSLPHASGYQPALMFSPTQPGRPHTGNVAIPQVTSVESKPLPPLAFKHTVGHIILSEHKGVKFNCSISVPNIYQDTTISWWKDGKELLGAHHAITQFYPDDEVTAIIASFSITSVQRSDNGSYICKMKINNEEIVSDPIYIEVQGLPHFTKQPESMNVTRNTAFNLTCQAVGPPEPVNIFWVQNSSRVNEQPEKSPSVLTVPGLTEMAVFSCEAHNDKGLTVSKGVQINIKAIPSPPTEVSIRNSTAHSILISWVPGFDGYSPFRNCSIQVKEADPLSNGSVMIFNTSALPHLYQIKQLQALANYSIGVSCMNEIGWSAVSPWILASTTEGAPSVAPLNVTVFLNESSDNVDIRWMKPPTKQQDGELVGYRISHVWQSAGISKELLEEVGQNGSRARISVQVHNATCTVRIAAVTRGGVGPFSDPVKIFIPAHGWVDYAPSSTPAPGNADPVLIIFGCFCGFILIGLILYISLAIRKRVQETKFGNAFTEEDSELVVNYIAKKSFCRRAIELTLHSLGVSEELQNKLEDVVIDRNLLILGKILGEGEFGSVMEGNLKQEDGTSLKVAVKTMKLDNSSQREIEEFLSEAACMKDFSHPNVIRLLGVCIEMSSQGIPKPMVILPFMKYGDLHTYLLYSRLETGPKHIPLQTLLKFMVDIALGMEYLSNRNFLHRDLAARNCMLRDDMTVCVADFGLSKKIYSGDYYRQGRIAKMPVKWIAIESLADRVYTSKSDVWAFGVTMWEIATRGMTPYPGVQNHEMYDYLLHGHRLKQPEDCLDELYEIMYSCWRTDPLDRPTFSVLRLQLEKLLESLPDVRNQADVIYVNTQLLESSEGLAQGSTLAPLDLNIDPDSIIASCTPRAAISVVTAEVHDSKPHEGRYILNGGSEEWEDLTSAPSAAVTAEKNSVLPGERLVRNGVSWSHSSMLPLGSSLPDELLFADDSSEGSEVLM
Experimental: as §1, §2

[20] = target: T20, PDGFRB (Homo sapiens, UniProt P09619)
T20 construct: host or cells: E. coli host derived from BL21, infected with T7 phage
Experimental: as §1, §2

[21] = target: T21, p38-alpha (Homo sapiens, UniProt Q16539)
T21 construct: host or cells: E. coli host derived from BL21, infected with T7 phage
T21 sequence (Q16539 whole entry): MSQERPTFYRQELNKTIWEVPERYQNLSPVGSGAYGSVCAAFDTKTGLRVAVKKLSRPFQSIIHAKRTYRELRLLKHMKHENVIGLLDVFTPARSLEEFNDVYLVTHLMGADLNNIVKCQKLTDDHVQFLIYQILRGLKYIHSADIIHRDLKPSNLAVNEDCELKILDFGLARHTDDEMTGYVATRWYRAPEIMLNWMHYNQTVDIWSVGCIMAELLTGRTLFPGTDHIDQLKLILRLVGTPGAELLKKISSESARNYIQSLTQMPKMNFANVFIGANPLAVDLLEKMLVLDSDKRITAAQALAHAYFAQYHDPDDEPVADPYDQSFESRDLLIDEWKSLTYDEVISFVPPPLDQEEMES
Experimental: as §1, §2

[22] = target: T22, NDR2 (Homo sapiens, UniProt Q9Y2H1)
T22 construct: host or cells: T7 phage grown in E. coli host derived from BL21
Experimental: as §1, §2

[23] = target: T23, CLK3 (Homo sapiens, UniProt P49761)
T23 construct: host or cells: T7 phage in E. coli host derived from BL21
Experimental: as §1, §2

[24] = target: T24, JAK1(JH1domain-catalytic) (Homo sapiens, UniProt P23458)
T24 construct: JAK1(JH1domain-catalytic); host or cells: T7 phage grown in E. coli host derived from BL21
T24 sequence (P23458 875-1153 limits assumed): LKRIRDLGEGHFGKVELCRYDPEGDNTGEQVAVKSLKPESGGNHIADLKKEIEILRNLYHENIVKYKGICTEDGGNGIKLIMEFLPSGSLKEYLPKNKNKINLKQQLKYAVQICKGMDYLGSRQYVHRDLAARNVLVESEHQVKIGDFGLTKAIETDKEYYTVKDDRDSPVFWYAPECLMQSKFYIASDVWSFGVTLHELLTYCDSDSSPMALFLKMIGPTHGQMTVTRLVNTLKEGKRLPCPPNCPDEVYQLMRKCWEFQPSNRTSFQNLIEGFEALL
Experimental: as §1, §2

[25] = target: T25, FGFR2 (Homo sapiens, UniProt P21802)
T25 construct: host or cells: T7 phage in E. coli host derived from BL21
Experimental: as §1, §2

[26] = target: T26, BMPR1B (Homo sapiens, UniProt O00238)
T26 construct: host or cells: E. coli host derived from BL21
Experimental: as §1, §2

[27] = target: T27, MEK3 (Homo sapiens, UniProt P46734)
T27 construct: host or cells: E. coli host derived from the BL21 strain, infected with T7 phage
Experimental: as §1, §2

[28] = target: T28, CDK8 (Homo sapiens, UniProt P49336)
T28 construct: host or cells: T7 phage in E. coli host derived from BL21
T28 sequence (P49336 whole entry): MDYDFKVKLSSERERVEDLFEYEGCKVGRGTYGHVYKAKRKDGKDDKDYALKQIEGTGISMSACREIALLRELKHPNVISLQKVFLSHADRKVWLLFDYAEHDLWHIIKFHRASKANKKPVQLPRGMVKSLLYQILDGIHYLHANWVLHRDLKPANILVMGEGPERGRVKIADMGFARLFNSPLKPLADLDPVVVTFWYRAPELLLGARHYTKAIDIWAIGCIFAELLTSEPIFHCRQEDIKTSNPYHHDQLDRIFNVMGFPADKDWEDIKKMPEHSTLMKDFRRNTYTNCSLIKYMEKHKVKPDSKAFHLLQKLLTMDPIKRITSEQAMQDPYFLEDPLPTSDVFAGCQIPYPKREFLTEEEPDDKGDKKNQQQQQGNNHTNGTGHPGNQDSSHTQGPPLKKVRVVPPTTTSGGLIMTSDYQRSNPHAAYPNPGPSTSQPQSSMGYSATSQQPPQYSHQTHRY
Experimental: as §1, §2

[29] = target: T29, MELK (Homo sapiens, UniProt Q14680)
T29 construct: host or cells: E. coli host derived from the BL21 strain, infected with T7 phage
T29 sequence (Q14680 whole entry): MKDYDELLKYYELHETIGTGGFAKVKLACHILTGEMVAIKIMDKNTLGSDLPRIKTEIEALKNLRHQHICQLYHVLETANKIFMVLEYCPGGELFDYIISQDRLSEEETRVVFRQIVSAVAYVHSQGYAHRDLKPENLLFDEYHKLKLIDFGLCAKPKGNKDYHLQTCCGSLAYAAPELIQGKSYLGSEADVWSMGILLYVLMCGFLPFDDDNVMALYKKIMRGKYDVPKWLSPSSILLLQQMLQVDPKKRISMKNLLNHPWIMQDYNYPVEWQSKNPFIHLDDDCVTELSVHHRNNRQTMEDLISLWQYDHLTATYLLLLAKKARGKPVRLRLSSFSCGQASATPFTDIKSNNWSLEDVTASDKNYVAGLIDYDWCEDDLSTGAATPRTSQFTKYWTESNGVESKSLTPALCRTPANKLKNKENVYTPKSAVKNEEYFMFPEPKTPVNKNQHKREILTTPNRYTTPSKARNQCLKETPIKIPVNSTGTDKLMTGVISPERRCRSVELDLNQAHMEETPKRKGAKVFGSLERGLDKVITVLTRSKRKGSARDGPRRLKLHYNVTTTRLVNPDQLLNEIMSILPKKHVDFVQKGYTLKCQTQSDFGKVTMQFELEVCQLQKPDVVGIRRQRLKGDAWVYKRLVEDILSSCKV
Experimental: as §1, §2

[30] = target: T30, RPS6KA2(Kin.Dom.-2-C-terminal) (Homo sapiens, UniProt Q15349)
T30 construct: RPS6KA2(Kin.Dom.-2-C-terminal); host or cells: E. coli host derived from BL21, T7 phage display
T30 sequence (Q15349 415-672 limits assumed): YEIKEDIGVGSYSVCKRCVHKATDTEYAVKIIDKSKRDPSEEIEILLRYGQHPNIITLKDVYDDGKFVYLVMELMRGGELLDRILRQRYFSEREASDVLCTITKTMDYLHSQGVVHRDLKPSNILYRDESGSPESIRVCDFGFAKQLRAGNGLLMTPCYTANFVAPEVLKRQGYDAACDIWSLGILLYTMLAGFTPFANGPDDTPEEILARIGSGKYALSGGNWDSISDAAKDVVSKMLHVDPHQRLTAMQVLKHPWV
Experimental: as §1, §2

[31] = target: T31, p38-gamma (Homo sapiens, UniProt P53778)
T31 construct: host or cells: E. coli host derived from BL21, infected with T7 phage
Experimental: as §1, §2

T1 sequence (P07949 29-1114 V804L): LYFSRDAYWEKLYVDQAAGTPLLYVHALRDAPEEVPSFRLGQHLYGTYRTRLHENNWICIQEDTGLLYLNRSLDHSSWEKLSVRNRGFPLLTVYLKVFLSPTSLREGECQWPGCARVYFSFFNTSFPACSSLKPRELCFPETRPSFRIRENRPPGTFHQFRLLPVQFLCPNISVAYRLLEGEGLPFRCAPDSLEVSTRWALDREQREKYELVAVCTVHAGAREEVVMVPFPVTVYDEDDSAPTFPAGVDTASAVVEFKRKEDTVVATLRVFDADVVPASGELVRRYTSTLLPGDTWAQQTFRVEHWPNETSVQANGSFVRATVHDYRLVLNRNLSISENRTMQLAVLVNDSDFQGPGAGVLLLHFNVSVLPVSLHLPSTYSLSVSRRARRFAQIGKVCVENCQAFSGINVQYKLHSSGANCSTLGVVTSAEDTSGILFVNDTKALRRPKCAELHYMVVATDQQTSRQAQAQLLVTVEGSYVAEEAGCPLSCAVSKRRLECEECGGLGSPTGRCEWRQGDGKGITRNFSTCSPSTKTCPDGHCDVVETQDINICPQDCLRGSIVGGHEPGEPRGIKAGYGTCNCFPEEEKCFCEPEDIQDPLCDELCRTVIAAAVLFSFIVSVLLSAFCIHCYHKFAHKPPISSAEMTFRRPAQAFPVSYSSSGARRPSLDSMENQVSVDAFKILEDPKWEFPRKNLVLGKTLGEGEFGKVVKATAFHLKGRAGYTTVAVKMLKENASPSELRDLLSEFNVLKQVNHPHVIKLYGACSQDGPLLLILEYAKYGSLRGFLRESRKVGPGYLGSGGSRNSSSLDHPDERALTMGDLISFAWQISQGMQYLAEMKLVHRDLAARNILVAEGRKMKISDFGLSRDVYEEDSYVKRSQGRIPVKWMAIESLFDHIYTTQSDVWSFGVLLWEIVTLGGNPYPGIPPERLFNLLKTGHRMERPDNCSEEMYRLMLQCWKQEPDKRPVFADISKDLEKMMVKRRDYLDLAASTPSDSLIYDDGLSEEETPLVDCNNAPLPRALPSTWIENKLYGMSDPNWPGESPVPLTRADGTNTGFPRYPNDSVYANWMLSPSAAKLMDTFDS

C#Cc1cccc(Nc2ncnc3cc(OC)c(OCCCN4CCOCC4)cc23)c1 [NRC-2694, N-(3-ethynylphenyl)-7-methoxy-6-[3-(4-morpholinyl)propoxy]-4-quinazolinamine]
remaining binding at 10 µM [1]: 81%
remaining binding at 10 µM [2]: 100%
remaining binding at 10 µM [3]: 83%
remaining binding at 10 µM [4]: 100%
remaining binding at 10 µM [5]: 90%
remaining binding at 10 µM [6]: 0%
remaining binding at 10 µM [7]: 39%
remaining binding at 10 µM [8]: 70%
remaining binding at 10 µM [9]: 100%
remaining binding at 10 µM [10]: 92%
remaining binding at 10 µM [11]: 56%
remaining binding at 10 µM [12]: 65%
remaining binding at 10 µM [13]: 33%
remaining binding at 10 µM [14]: 61%
remaining binding at 10 µM [15]: 37%
remaining binding at 10 µM [16]: 48%
remaining binding at 10 µM [17]: 15%
remaining binding at 10 µM [18]: 77%
remaining binding at 10 µM [19]: 48%
remaining binding at 10 µM [20]: 10%
remaining binding at 10 µM [21]: 89%
remaining binding at 10 µM [22]: 74%
remaining binding at 10 µM [23]: 45%
remaining binding at 10 µM [24]: 15%
remaining binding at 10 µM [25]: 100%
remaining binding at 10 µM [26]: 78%
remaining binding at 10 µM [27]: 100%
remaining binding at 10 µM [28]: 100%
remaining binding at 10 µM [29]: 57%
remaining binding at 10 µM [30]: 78%
remaining binding at 10 µM [31]: 97%
